Numbered stars: 1 amine (or outer) side, 2 acyl side, 3 side chain; on linkers, the order of the positions; unused ones are H or OH. Square brackets hold non-standard residues; d marks the D form. Peptide text beside a SMILES is read from it. * marks the point of attachment. C18 diacid = O=C(O)CCCCCCCCCCCCCCCCC(=O)*; γGlu = O=C(O)[C@H](CCC(=O)[*:2])N[*:1]; Stearoyl = CCCCCCCCCCCCCCCCCC(=O)*; NMeL = CN[C@@H](CC(C)C)C(=O)O; hSer = N[C@@H](CCO)C(=O)O; Nle = CCCC[C@H](N)C(=O)O; AEEA = NCCOCCOCC(=O)O; Aib = CC(C)(N)C(=O)O
Tests used:
[1] = biological target: T1, hNK1R (Homo sapiens, UniProt P25103); experiment: IP3 assay (inositol trisphosphate, 3H-myoinositol) in transiently transfected COS-7 cells; format: cell-based; settings: COS-7 cells; for EC50: 0.2% ovalbumin buffer; for hNK1R, IP3 Efficacy: figure legends: percent of 10^-6 M NKA
T1 construct: host or cells: COS-7
Outline: (§1)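 COS-7 cells were transiently transfected with receptor plasmid and labelled with ³H-myo-inositol. Cells were lysed in formic acid, and ³H-inositol phosphates were captured on SPA YSI beads and counted.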

[2] = biological target: T2, hNK2R (Homo sapiens, UniProt P21452); experiment: as above; format: cell-based; settings: COS-7 cells; for EC50: 0.2% ovalbumin buffer; for hNK2R, IP3 Efficacy: figure legends: percent of 10^-6 M NKA
T2 construct: host or cells: COS-7
T2 sequence (P21452 1-398): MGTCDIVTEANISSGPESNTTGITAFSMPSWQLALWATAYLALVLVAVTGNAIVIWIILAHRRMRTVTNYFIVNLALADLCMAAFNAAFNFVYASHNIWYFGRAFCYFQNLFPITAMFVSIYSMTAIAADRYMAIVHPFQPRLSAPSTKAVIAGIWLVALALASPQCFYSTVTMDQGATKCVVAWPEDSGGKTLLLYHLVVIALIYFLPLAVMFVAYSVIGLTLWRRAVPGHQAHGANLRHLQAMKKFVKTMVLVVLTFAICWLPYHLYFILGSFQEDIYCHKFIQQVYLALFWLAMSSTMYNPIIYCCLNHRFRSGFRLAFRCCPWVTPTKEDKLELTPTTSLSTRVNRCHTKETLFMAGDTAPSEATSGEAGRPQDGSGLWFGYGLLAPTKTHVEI
Outline: as §1

[3] = biological target: T3, hNK3R (Homo sapiens, UniProt P29371); experiment: as above; format: cell-based; settings: COS-7 cells; for EC50: 0.2% ovalbumin buffer, read-out: hNK3, IP3 EC50; for hNK3, IP3 Efficacy: figure legends: percent of 10^-6 M NKA
T3 construct: host or cells: COS-7
T3 sequence (P29371 1-465): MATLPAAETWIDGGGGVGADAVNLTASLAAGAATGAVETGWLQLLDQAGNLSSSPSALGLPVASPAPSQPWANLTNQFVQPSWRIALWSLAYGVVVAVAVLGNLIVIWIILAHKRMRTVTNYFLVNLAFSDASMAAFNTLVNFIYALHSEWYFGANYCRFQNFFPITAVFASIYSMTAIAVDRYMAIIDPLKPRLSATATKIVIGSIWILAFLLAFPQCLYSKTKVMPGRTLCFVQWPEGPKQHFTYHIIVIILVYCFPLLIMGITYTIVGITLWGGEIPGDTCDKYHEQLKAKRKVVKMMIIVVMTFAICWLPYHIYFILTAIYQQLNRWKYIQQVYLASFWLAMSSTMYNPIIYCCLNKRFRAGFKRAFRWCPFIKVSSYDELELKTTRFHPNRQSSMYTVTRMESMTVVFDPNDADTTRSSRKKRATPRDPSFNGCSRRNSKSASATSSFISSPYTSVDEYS
Outline: as §1

[4] = biological target: T2, hNK2R; experiment: Indirect human serum albumin binding by IP3 assay, 0.2% ovalbumin vs 1% HSA; format: cell-based
Procedure: (§2) Agonist-induced G-protein coupled receptor (GPCR) activation was measured by an Inositol-1,4,5-Trisphosphate [^3H] Radioreceptor Assay (IPs Assay). Assays were carried out using COS-7 cells transiently transfected by calcium phosphate transfection with a vector pcDNA3.1(+) encoding one of the indicated receptors (Genscript). Briefly, DNA mixed with CaCl2 (2 M) and TE-buffer (10 mM Tris-HCl, 1 mM EDTA, pH 7.5) was dropwise added to 2×HBS (50 mM HEPES, 280 mM NaCl, 1.5 mM NaH2PO4, pH 7.2) and incubated for 45 min at room temperature (22±2° C.). The mixture and a final concentration of 100 μM Chloroquine were added to the cells and left to incubate for 5 hours at 37° C. under standard cell culture conditions (10% CO2) before changing medium to fresh medium containing 5 μl/mL Myo-[2-^3H(N)]-inositol (labeling medium).
The indirect HSA binding IP3 assay takes advantage of the tachykinin receptors' ability to induce production of the inositol trisphosphate (IP3) second messenger upon agonist (ligand) binding on receptor expressing cells following an initial ^3H-inositol labeling period. The assay relies on the assumption that high peptide HSA binding will result in low receptor-mediated production of the second messenger IP3. Thus, the assay is an indirect assessment HSA binding.
Assay solutions used: Wash buffer (HBSS), Assay buffer 0.2% OvAlb (HBSS+10 mM LiCl and 0,2% w/v ovalbumin) or Assay buffer 1% HSA (HBSS+10 mM LiCl and 1% w/v HSA), Lysis buffer (10 mM formic acid), and SPA YSI beads (12.5 mg/ml in H2O). The assay was performed the day after transfection. Briefly, labelling medium was aspirated, and plates were washed ×1 in wash buffer before adding 100 μl assay buffer 0.2% OvAlb or assay buffer 1% HSA, pre-incubated for 30 min followed by 120 min incubation with agonist, both at 37° C. After incubation, plates were immediately placed on ice and the incubation medium was aspirated and 40 μl of 10 mM formic acid per well was added. Plates were incubated for at least 30 min on ice. 60 μl (1 mg/well) SPA YSI beads/well was pipetted into a solid white 96 wells plate and 35 μl of the lysis solution was transferred to the plate before covering plates with seal cover and shaking for 10 min. (max speed). Centrifuge plates and leave for 8 hours at room temperature before counting the plates in a MicroBeta plate counter (Perkin Elmer).

[5] = in vivo; parameters: species or system mice; settings: mouse, sc, 0.5 mg/kg, Half-life
Procedure: Pharmacokinetics: To evaluate the in vivo half-life of individual peptide analogues we used wild type lean mice at around 10 weeks of age injected once with a peptide analogue. For each sample time point 3-4 mice were used and blood was drawn from the submandibular vein at indicated time points following injection. Prior to injection mice were given ad libitum access to standard chow diet. Mice were subcutaneously injected with 0.5 mg/kg peptide analogue in a volume of 2 ml/kg. The amount of peptide analogue and metabolite(s) present in blood samples were measured by TF-LC-MS and MetID-LC-MS, respectively. Sample preparation: One volume of plasma is precipitated with three volumes of ethanol (with internal standard). The mixture is centrifuged at 13000 g for 20 min. One volume of supernatant is diluted with two volumes of Milli-Q water (1% formic acid). Calibration curve: peptide analogue was spiked into blank mouse plasma. Range: 0.5 to 2000 nM (linear 1/x2).

[6] = biological target: T2, hNK2R; experiment: Hithunter cAMP assay (Gs-coupling) in transfected COS-7 cells; format: cell-based; settings: COS-7 cells
Procedure: as §2, with “As a secondary measure of agonist-induced” for “Agonist-induced”, “activation cyclin adenosine monophosphate (cAMP)” for “activation”, “the Hithunter cAMP-assay from DiscoverX.” for “an Inositol-1,4,5-Trisphosphate [^3H] Radioreceptor Assay (IPs Assay).”, “maintenance medium.” for “medium containing 5 μl/mL Myo-[2-^3H(N)]-inositol (labeling medium).”
The cAMP-assay takes advantage of the tachykinin receptors' ability to induce production of the cAMP second messenger upon agonist (ligand) binding on receptor expressing cells. Production of cAMP stems from receptor coupling to Gs-protein although coupling to Gq-protein (IP3-production) is considered the primary signalling mechanism by tachykinin receptors.
The assay was performed the day after transfection. Briefly, maintenance medium was aspirated, and plates were washed ×1 in HBSS before adding assay buffer (HBSS+1 mM IBMX), pre-incubated for 30 min at 37° C. followed by 15 min incubation with agonist (ligand) at 37° C. After incubation, plates were subjected to cell lysis and anti-cAMP-antibody incubation as described by manufacturer. Luminescence was measured with EnVision Multimode Plate Reader from Perkin Elmer.

[7] = biological target: T2, hNK2R; experiment: 3H-NKA competitive binding on transfected COS-7 cells; settings: competition with 3H-NKA, 4 h at 4 C
Procedure: as §2, with “Assays” for “Agonist-induced G-protein coupled receptor (GPCR) activation was measured by an Inositol-1,4,5-Trisphosphate [^3H] Radioreceptor Assay (IPs Assay). Assays”, “maintenance medium.” for “medium containing 5 μl/mL Myo-[2-^3H(N)]-inositol (labeling medium).”
The ^3H-NKA binding assay measures peptide-receptor binding by a competitive principle of receptor binding between radioactively labelled (3H) NKA (tracer) and synthesized peptide ligands on live cells expressing the receptor of interest. Assay solutions used: TKR buffer (50 mM Tris/HCl pH 7.5, 5 mM MnCl2, and 150 mM NaCl), wash buffer (TKR buffer+0.2% w/v OvAlb), binding buffer (wash buffer+0.1 mg/ml Bacitracin), and tracer solution (binding buffer+˜15000 cpm/well ^3H-tracer). The assay was performed on ice the day after transfection.
Briefly, maintenance medium was aspirated, and plates were washed ×1 in cold wash buffer before adding 100 μl cold binding buffer and placing at 4° C. to let plates cool. The cold plates were added indicated peptides (ligand) immediately followed by addition of cold tracer solution (˜15000 cpm/well). Plates were immediately moved to 4° C. and incubated for 4 hours. After incubation, binding was stopped by wash ×2 with cold wash buffer before adding 225 μl Ultima Gold XR. Plates were shaken at medium speed for approximately 30 min and left overnight at room temperature before counting the plates in a MicroBeta plate counter (Perkin Elmer).

[8] = 0.2% ovalbumin, read-out: hNK2R, Albumin binding EC50 (nM)-ovalbumin
[9] = 1% HSA, read-out: hNK2R, Albumin binding EC50 (nM)-1% human serum albumin

T1 sequence (P25103 whole entry): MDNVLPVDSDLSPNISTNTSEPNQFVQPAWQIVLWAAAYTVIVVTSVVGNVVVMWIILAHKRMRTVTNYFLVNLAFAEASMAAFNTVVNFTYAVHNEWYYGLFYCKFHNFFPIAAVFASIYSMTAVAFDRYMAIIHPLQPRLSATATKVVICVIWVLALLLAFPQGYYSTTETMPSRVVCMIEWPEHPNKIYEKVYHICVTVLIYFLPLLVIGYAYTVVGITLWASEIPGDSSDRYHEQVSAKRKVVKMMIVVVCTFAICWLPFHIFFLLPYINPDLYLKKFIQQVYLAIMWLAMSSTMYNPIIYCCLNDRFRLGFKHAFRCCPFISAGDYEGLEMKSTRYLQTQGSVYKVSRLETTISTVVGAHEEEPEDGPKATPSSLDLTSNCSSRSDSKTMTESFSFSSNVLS

| SMILES | EC50 [1] [nM] | hNK1R, IP3 Efficacy [1] [%] | EC50 [2] [nM] | hNK2R, IP3 Efficacy [2] [%] | EC50 [3] [nM] | hNK3, IP3 Efficacy [3] [%] | hNK2R, Albumin binding Efficacy (%)-ovalbumin ([4]; 0.2% ovalbumin) [%] | EC50 [4, 8] [nM] | hNK2R, Albumin binding Efficacy (%)-1% human serum albumin ([4]; 1% HSA) [%] | EC50 [4, 9] [nM] | half-life [5] [h] | EC50 [6] [nM] | hNK2R, cAMP Efficacy [6] [%] | EC50 [7] [nM] |
| --- | --- | --- | --- | --- | --- | --- | --- | --- | --- | --- | --- | --- | --- | --- |
| CCCCCCCCCCCCCCCCCC(=O)N[C@@H](CCC(=O)NCCOCCOCC(=O)NCCOCCOCC(=O)N[C@@H](CC(=O)O)C(=O)N[C@@H](CCCCN)C(=O)N[C@@H](Cc1ccc(O)cc1)C(=O)N[C@H](C(=O)NCC(=O)N(C)[C@@H](CC(C)C)C(=O)N[C@@H](CCCC)C(N)=O)C(C)C)C(=O)O [compound 390, *Asp;Lys;Tyr;Val;Gly;NmLeu;Nle;NH2] ({Stearoyl-γGlu-AEEA-AEEA}-DKYVG[NMeL][Nle]-NH2) | 3.9 | 88 | 1 | 100 | 14 | 100 | 100 | 1 | 90 | 0.7 | 1.7 |  |  |  |
| COCC[C@H](NC(=O)[C@H](CC(C)C)NC(=O)C(C)(C)NC(=O)[C@@H](NC(=O)[C@H](Cc1ccc(O)cc1)NC(=O)[C@H](CCCCN)NC(=O)[C@H](CC(=O)O)NC(=O)COCCOCCNC(=O)COCCOCCNC(=O)CC[C@H](NC(=O)CCCCCCCCCCCCCCCCC(=O)O)C(=O)O)C(C)C)C(N)=O [compound 394, *Asp;Lys;Tyr;Val;Aib;Leu;Metox;NH2] ({C18 diacid-γGlu-AEEA-AEEA}-DKYV[Aib]L[hSer](Me)-NH2) | ~940 | 35 | 5 | 90 |  | 0 |  |  |  |  |  | 306 | 100 | ~108 |
| CCCCCCCCCCCCCCCCCC(=O)N[C@@H](CCC(=O)NCCOCCOCC(=O)NCCOCCOCC(=O)N[C@@H](CC(=O)O)C(=O)N[C@@H](CCCCN)C(=O)N[C@@H](Cc1ccc(O)cc1)C(=O)N[C@H](C(=O)NCC(=O)N(C)[C@@H](CC(C)C)C(=O)N[C@@H](CCOC)C(N)=O)C(C)C)C(=O)O [compound 391, *Asp;Lys;Tyr;Val;Gly;NmLeu;Metox;NH2] ({Stearoyl-γGlu-AEEA-AEEA}-DKYVG[NMeL][hSer](Me)-NH2) | 3.4 | 100 | 0.9 | 90 | 4 | 100 | 100 | 0.9 | 90 | 0.6 |  |  |  |  |

Reference: patent US20230406883A1, “COMPOUNDS AND THEIR USE IN TREATMENT OF TACHYKININ RECEPTOR MEDIATED DISORDERS” (Embark Biotech ApS, priority 2020, published 2023)
